From patent US20200222370A1, “PHARMACEUTICAL COMPOSITION” (KOWA COMPANY, LTD., priority 2017, published 2020)

Experiments:
[1] = pH value of pemafibrate itself dissolved or dispersed in purified water; format: physicochemical; settings: pemafibrate 5 μg/mL as free form in purified water
Procedure: Herein, the “a pH value of a solution produced by dissolving or dispersing a pharmaceutical composition in water” means a value obtained by measuring at 25° C. a pH of a solution produced by dissolving or dispersing a pharmaceutical composition containing pemafibrate, a salt thereof or a solvate thereof in water so that the concentration of pemafibrate in terms of a free form is 5 μg/mL. Incidentally, purified water is used as water. First a measurement of a pH value of pemafibrate itself was performed. To be more specific, pemafibrate was dissolved or dispersed in purified water so that the concentration of pemafibrate as the free form was 5 μg/mL. Then, a pH value of the obtained solution at 25° C. was measured.

[2] = Stability of pemafibrate under different pH environments (buffer solutions, 80° C., 96 hours, HPLC); format: physicochemical; settings: 5 μg/mL, 96 hours later
Procedure: In Test Examples below, measurement was performed through HPLC using an ODS column as a column and an ultraviolet spectrophotometer as a detector. Additionally, the following studies were conducted in order to evaluate the stability of pemafibrate under different pH environments. Namely, buffer solutions were prepared in accordance with the descriptions about buffer solutions of U.S.Pharmacopeia (2013 Edition) and Japanese Pharmacopeia (17th Edition), so as to have the following pH values at 25° C.: pH 2.0 (hydrochloric acid buffer solution including potassium chloride); pH 3.0 and 4.0 (Acid phthalate buffer solution including potassium biphthalate); pH 6.0 and 7.0 (phosphate buffer solution); pH 8.0, 9.0 and 10.0 (Alkaline borate buffer solution including boric acid, potassium chloride and sodium hydroxide); pH 11.0 (Ammonium buffer solution including ammonia and ammonium chloride); and pH 12.0 (phosphate buffer solution). In each of the buffer solutions, pemafibrate was dissolved or dispersed so that its amount as the free form was 5 μg/mL, thereby producing liquid samples having different pH conditions. The liquid samples were stored at 80° C. for 96 hours. The amounts of pemafibrate-derived decomposition products (related substances) in the liquid samples after storage for 96 hours were evaluated through the following method. Specifically, acetonitrile was added to each of the liquid samples, and then they were measured by using HPLC. The sum of peak areas derived from related substances on the chromatogram was calculated in terms of the ratio (%) to the sum of peak areas derived from pemafibrate and related substances, and the ratio was defined as the “Total amount (%) of related substances”.

**Q.** With `CC[C@@H](Oc1cccc(CN(CCCOc2ccc(OC)cc2)c2nc3ccccc3o2)c1)C(=O)O` [pemafibrate, (2R)-2-[3-([1,3-Benzoxazol-2-yl[3-(4-methoxyphenoxy)propyl]amino]methyl)phenoxy]butanoic acid] as the molecule, how does the “pH value (25° C.)” value [1] read?
**A.** ~5.9

**Q.** What about the “Total amount (%) of related substances” value ([2]; pH 2.0 buffer) of the same molecule?
**A.** 27.1%

**Q.** What about the “Total amount (%) of related substances” value ([2]; pH 3.0 buffer) of the same molecule?
**A.** 4.1%

**Q.** And the “Total amount (%) of related substances” value ([2]; pH 4.0 buffer)?
**A.** 1.1%

**Q.** What about the “Total amount (%) of related substances” value ([2]; pH 6.0 buffer) of the same molecule?
**A.** 1.3%

**Q.** And the “Total amount (%) of related substances” value ([2]; pH 7.0 buffer)?
**A.** 0.9%

**Q.** And the “Total amount (%) of related substances” value ([2]; pH 8.0 buffer)?
**A.** 0.4%

**Q.** And the “Total amount (%) of related substances” value ([2]; pH 9.0 buffer)?
**A.** <0.1%

**Q.** And the “Total amount (%) of related substances” value ([2]; pH 10.0 buffer)?
**A.** 0.1%

**Q.** And the “Total amount (%) of related substances” value ([2]; pH 11.0 buffer)?
**A.** 0.1%

**Q.** What about the “Total amount (%) of related substances” value ([2]; pH 12.0 buffer) of the same molecule?
**A.** <0.1%
